Assay results taken from patent US20210032257A1, “(E)-1-(4-(DIMETHYLAMINO)BUT-2-ENOYL)PYRROLIDIN-3-YL 4-((3-ISOPROPYL-5-METHYLPYRAZOLO[1,5-A]PYRIMIDIN-7-YL)AMINO)PIPERIDINE-1-CARBOXYLATE FOR INHIBITING CDK7” (Eli Lilly and Company, priority 2017, published 2021).

Columns and labels:
CDK9/cyclinT1 = CDK9/cyclinT1 (Homo sapiens, UniProt P50750); experiment: Assay for inhibition of CDK9/CyclinT1 kinase activity (radiolabel filter binding)
Description: The IC50 determination for CDK7 and CDK9 are determined as follows.
The IC50 activity of the inhibitor is determined using radiolabel filter binding (FB) assays using the purified human recombinant enzyme in the presence of ATP and peptide substrate. The ATP concentrations chosen are at or near the enzyme Km for ATP. Reactions are carried out in 96 well polystyrene plates in a final volume of 25 μL per well. 5 μL of test compound in 20% DMSO, 10 μL of substrate solution (ATP//[^33P]ATP and CDK7/9 tide) and 10 μL of enzyme solution are mixed. […] The enzyme solution is prepared for a final concentration of 7.5 nM CDK9/cyclinT1 enzyme [Proqinase 0371-0345-1 (Lot 004)] diluted in kinase buffer. Test compounds are serially diluted 1:3 in 20% DMSO to create a 10 point curve at a starting concentration of 2 μM. 20% DMSO buffer alone without test compound is employed as high control (full activity in the absence of any inhibitor), 500 mM EDTA is used to determine the level of background in the absence of enzyme activity (low control). After mixing 5 μL of compounds with 10 μL of enzyme solution the plate is incubated for 0 or 180 minutes at 22° C. After that time the reaction is initiated by the addition of 10 μL substrate solution and incubated for 60 minutes at 22° C. […] 80 μL of MICROSCINT™ is added to each well and read on a scintillation counter after an hour. […]

EMT6 xenograft = experiment: Xenograft Tumor Model; format: in vivo, mice; conditions: EMT6, Breast; BALB/c; 20 mg/kg PO QDx28
Description: (§1) To evaluate in vivo efficacy of a test compound, multiple xenograft tumor models are utilized. Briefly, 5-10×10^6 tumor cells in a 1:1 MATRIGEL® mix (0.2 mL total volume) are injected subcutaneously into the female athymic nude mice (Envigo, Harlan laboratories) for a majority of xenograft tumor models. Alternate mice strains are utilized to establish MDAMB468 (NOD SCID Gamma, Jackson labs), CT26 and EMT6 (BALB/c, Envigo, Harlan Laboratories) xenografts. After allowing tumors to reach a desired size of ˜300-500 mm^3, animals are randomized into groups of 6-8 for efficacy studies. Test compound is administered via oral gavage (PO) at indicated doses and regimens. Tumor growth and body weight are monitored over time to evaluate efficacy and signs of toxicity.
(§2) Test compound is formulated in 5% N-methyl-2-pyrrolidone (NMP) in 1% hydroxyethylcellulose, 0.25% polysorbate 80, 0.05% antifoam in purified water (HEC) and administered by oral gavage (final volume 0.2 mL) at the doses indicated in Table 4. A test compound is formulated on a weekly basis and stored at 4° C. Vehicles are administered to the control groups according the schedules used above using a volume of 0.2 mL per dose. Mice are dosed via oral gavage and tumor samples are collected at termination and stored at −80° C.
(§3) Tumor size and body weight are recorded and analyzed bi-weekly. Blood is collected using DBS (dried blood spot) card 2 hours after dose and at termination. Tumors are collected at study termination, cut into 3 sections and either snap frozen for exposure and protein analysis, or placed in RNAlater® for RNA analysis. Tissue samples are frozen and stored at −80° C.
(§4) Delta T/C % is calculated when the endpoint tumor volume in a treated group is at or above baseline tumor volume. The formula is 100*(T−T0)/(C−C0). Here, T and C are mean endpoint tumor volumes in the treated or control group, respectively. TO and CO are mean baseline tumor volumes in those groups. *: Significant (p<0.05)

MKN45 xenograft = experiment: Xenograft Tumor Model; format: in vivo, mice; conditions: MKN45, Stomach, KMT2C; 20 mg/kg PO QDx35
Description: as §1, §2, §3, §4

COLO205 xenograft = experiment: Xenograft Tumor Model; format: in vivo, mice; conditions: COLO205, Colorectal; 20 mg/kg PO QDx28
Description: as §1, §2, §3, §4

A2780 xenograft = experiment: Xenograft Tumor Model; format: in vivo, mice; conditions: A2780, Ovary, ARID1A; 20 mg/kg PO QDx35
Description: as §1, §2, §3, §4

HCC1806 xenograft = experiment: Xenograft Tumor Model; format: in vivo, mice; conditions: HCC1806, Breast, KMT2C; 20 mg/kg PO QDx28
Description: as §1, §2, §3, §4

MDAMB468 xenograft = experiment: Xenograft Tumor Model; format: in vivo, mice; conditions: MDAMB468, Breast, ARID1A, RB1; NOD SCID Gamma; 20 mg/kg PO QDx28
Description: as §1, §2, §3, §4

CT26 xenograft = experiment: Xenograft Tumor Model; format: in vivo, mice; conditions: CT26, Colorectal; BALB/c; 20 mg/kg PO QDx24
Description: as §1, §2, §3, §4

HCT116 xenograft = experiment: Xenograft Tumor Model; format: in vivo, mice; conditions: HCT116, Colorectal, KMT2C; 25 mg/kg PO QDx21
Description: as §1, §2, §3, §4

MIAPACA2 xenograft = experiment: Xenograft Tumor Model; format: in vivo, mice; conditions: MIAPACA2, Pancreatic, ARID1A; 20 mg/kg PO QDx35
Description: as §1, §2, §3, §4

H441 xenograft = experiment: Xenograft Tumor Model; format: in vivo, mice; conditions: H441, Lung; 20 mg/kg PO QDx35
Description: as §1, §2, §3, §4

MDAMB231 xenograft = experiment: Xenograft Tumor Model; format: in vivo, mice; conditions: MDAMB231, Breast; 20 mg/kg PO QDx35
Description: as §1, §2, §3, §4

H460 xenograft = experiment: Xenograft Tumor Model; format: in vivo, mice; conditions: H460, Lung, ARID1A; 20 mg/kg PO QDx35
Description: as §1, §2, §3, §4

Chain of CDK9/cyclinT1 (P50750 whole entry): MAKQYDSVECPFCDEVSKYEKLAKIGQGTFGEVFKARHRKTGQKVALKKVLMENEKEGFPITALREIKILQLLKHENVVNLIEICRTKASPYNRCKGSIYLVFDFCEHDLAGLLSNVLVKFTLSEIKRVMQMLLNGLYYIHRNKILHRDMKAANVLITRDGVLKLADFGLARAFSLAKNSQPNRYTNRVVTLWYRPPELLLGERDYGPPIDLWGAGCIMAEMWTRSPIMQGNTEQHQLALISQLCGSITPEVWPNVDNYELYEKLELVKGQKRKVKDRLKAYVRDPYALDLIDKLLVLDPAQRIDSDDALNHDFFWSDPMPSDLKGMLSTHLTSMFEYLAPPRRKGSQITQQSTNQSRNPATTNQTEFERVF
Chain of CDK9/cyclinT1 (O60563 whole entry partner): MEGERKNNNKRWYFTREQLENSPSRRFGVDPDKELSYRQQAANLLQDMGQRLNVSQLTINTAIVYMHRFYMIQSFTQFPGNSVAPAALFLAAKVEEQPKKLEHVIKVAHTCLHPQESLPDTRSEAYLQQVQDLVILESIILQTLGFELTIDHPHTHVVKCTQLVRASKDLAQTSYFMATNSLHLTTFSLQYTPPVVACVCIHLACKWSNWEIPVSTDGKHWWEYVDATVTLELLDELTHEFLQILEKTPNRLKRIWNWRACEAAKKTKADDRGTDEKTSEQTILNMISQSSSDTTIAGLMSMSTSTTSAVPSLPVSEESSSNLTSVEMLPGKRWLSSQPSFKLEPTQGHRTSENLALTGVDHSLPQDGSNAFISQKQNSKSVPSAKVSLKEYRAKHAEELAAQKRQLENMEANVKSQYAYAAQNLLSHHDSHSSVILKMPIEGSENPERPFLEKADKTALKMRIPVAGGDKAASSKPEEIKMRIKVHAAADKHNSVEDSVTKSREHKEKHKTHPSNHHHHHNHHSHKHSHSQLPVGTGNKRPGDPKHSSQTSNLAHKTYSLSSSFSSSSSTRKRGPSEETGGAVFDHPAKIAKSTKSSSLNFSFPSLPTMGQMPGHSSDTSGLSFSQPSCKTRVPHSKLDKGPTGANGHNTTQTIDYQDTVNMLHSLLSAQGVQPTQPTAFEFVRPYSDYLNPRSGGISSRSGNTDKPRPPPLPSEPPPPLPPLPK

Cc1cc(NC2CCN(C(=O)O[C@H]3CCN(C(=O)/C=C/CN(C)C)C3)CC2)n2ncc(C(C)C)c2n1 [Example 1, [(3S)-1-[(E)-4-(dimethylamino)but-2-enoyl]pyrrolidin-3-yl] 4-[(3-isopropyl-5-methyl-pyrazolo[1,5-a]pyrimidin-7-yl)amino]piperidine-1-carboxylate]
IC50 (CDK9/cyclinT1): 5.9 µM | Avg. ΔT/C (EMT6 xenograft): 17% | Avg. ΔT/C (MKN45 xenograft): 57% | Avg. ΔT/C (COLO205 xenograft): −4% | Avg. ΔT/C (A2780 xenograft): −41% | Avg. ΔT/C (HCC1806 xenograft): −87% | Avg. ΔT/C (MDAMB468 xenograft): −91% | Avg. ΔT/C (CT26 xenograft): 52% | Avg. ΔT/C (HCT116 xenograft): −17% | Avg. ΔT/C (MIAPACA2 xenograft): 10% | Avg. ΔT/C (H441 xenograft): 0% | Avg. ΔT/C (MDAMB231 xenograft): −25% | Avg. ΔT/C (H460 xenograft): 16%
